Assay results: article PMC8175350, “Drug repurposing screens identify chemical entities for the development of COVID-19 interventions” (Nature Communications, 2021)
Structures can show the parent of a compound that is named as a salt. Where two headings read alike, the source gives them in different places.

What was measured:
SARS-CoV-2 [1] = experiment: microbe, parasite or virus in culture; assay type: cell-based; settings: for Emax: Severe acute respiratory syndrome coronavirus 2, HeLa-ACE2, 24 h, curve plateau at infinite concentration, read-out: HeLa-ACE2 CoV-2 Sinf Average
[2] = Uninfected HeLa-ACE2 24 h live/dead cytotoxicity counter screen; assay type: cell-based, human; settings: human, uninfected HeLa-ACE2 cells
SARS-CoV-2 [3] = experiment: microbe, parasite or virus in culture; assay type: cell-based; settings: for Emax: Severe acute respiratory syndrome coronavirus 2, Calu-3, 48 h, read-out: Calu-3 CoV-2 Sinf Average
HeLa-ACE2 cells [4] = experiment: cells; settings: Homo sapiens; for Emax: HeLa-ACE2, 24 h, read-out: HeLa-ACE2 cell count Sinf Average
Calu-3 cells [5] = experiment: cells; settings: Homo sapiens; for Emax: Calu-3, 48 h, read-out: Calu-3 cell count Sinf Average
in vitro = settings: human
[6] = human, cited from earlier work
HeLa-ACE2 cells [7] = experiment: Uninfected HeLa-ACE2 24 h live/dead cytotoxicity counter screen; assay type: cell-based, human; settings: curve plateau at infinite concentration
SARS-CoV-2 [8] = experiment: microbe, parasite or virus in culture; assay type: cell-based; settings: for Emax: Severe acute respiratory syndrome coronavirus 2, HeLa-ACE2, 10 h, curve plateau at infinite concentration, read-out: HeLa-ACE2 TOA CoV-2 Sinf Average; for EC50: Severe acute respiratory syndrome coronavirus 2, HeLa-ACE2, detail block, read-out: HeLa-ACE2 TOA CoV-2 EC50 GeoMean
HeLa-ACE2 cells [9] = experiment: cells; assay type: cell-based, human; settings: Homo sapiens, HeLa-ACE2; read-out: HeLa-ACE2 TOA cell count EC50 GeoMean
[10] = HepG2 72 h CellTiter-Glo cytotoxicity; settings: human, HepG2 cells
HepG2 = HepG2 72 h CellTiter-Glo cytotoxicity; settings: 72 h
[11] = HEK293T 72 h CellTiter-Glo cytotoxicity; settings: human, HEK293T cells
HEK293T = HEK293T 72 h CellTiter-Glo cytotoxicity; settings: 72 h
[12] = Uninfected Calu-3 48 h Cell-Titer Glo cytotoxicity counter screen; settings: human, uninfected Calu-3 cells, Calu-3 uninfected cytotoxicity CC50 GeoMean, detail block
Calu-3 cells [13] = experiment: as above; settings: curve plateau at infinite concentration
[14] = Severe acute respiratory syndrome coronavirus 2, HeLa-ACE2, detail block, read-out: HeLa-ACE2 CoV-2 EC50 GeoMean
[15] = selectivity index, uninfected HeLa-ACE2 CC50 / SARS-CoV-2 EC50
[16] = detail block, read-out: HeLa-ACE2 uninfected cytotoxicity CC50 GeoMean
[17] = curve plateau at infinite concentration
[18] = Severe acute respiratory syndrome coronavirus 2, Calu-3, detail block, read-out: Calu-3 CoV-2 EC50 GeoMean
[19] = selectivity index, uninfected Calu-3 CC50 / Calu-3 SARS-CoV-2 EC50
[20] = HeLa-ACE2, read-out: HeLa-ACE2 cell count EC50 GeoMean, detail block
[21] = Calu-3, read-out: Calu-3 cell count EC50 GeoMean, detail block

C=Cc1cc(C(=O)Nc2ccc(C(=N)N)cc2)c(-c2ccc(C(=O)NCC3CC3)nc2C(=O)O)cc1OC [Avoralstat]
EC50 (SARS-CoV-2 [1]; Severe acute respiratory syndrome coronavirus 2, HeLa-ACE2, reconfirmed hits, read-out: HeLa-ACE2 SARS-CoV-2 EC50): > 9.6 µM
EC50 (SARS-CoV-2 [1]; Severe acute respiratory syndrome coronavirus 2, HeLa-ACE2, unrounded geometric mean, read-out: HeLa-ACE2 CoV-2 EC50 GeoMean): > 9.59 µM
CC50 at 24 h ([2]; reconfirmed hits, read-out: HeLa-ACE2 Uninf. cells CC50): > 40 µM
CC50 at 24 h ([2]; unrounded geometric mean, read-out: HeLa-ACE2 uninfected cytotoxicity CC50 GeoMean): > 39.8 µM
Emax (SARS-CoV-2 [3]; curve-fit effect at infinite concentration, average): 88%
EC50 (SARS-CoV-2 [3]; Severe acute respiratory syndrome coronavirus 2, Calu-3, reconfirmed hits, read-out: Calu-3 SARS-CoV-2 EC50): 0.387 µM
EC50 (SARS-CoV-2 [3]; Severe acute respiratory syndrome coronavirus 2, Calu-3, unrounded geometric mean, read-out: Calu-3 CoV-2 EC50 GeoMean): 0.387 µM
EC50 (HeLa-ACE2 cells [4]; HeLa-ACE2, read-out: HeLa-ACE2 cell count EC50 GeoMean, unrounded geometric mean): > 9.59 µM
Emax (Calu-3 cells [5]): 91%
EC50 (Calu-3 cells [5]; Calu-3, read-out: Calu-3 cell count EC50 GeoMean, unrounded geometric mean): 0.57 µM
CC50 (in vitro; Calu-3 Uninf. cells CC50 (µM), reconfirmed hits): > 30 µM
CC50 (in vitro; Calu-3 uninfected cytotoxicity CC50 GeoMean, unrounded geometric mean): > 29.9 µM
Approx. t1/2 ([6]; ref [33]-[49]): 14 h
Cmax ([6]; read-out: Approx. Cmax, oral, ref [36],[37],[42],[43] as in column Refs.): 0.364 µM

OCCN1CCN(CC/C=C2/c3ccccc3Sc3ccc(Cl)cc32)CC1 [Zuclopenthixol]
Emax (SARS-CoV-2 [1]): 100%
EC50 (SARS-CoV-2 [1]; [14]): 2.08 µM
HeLa-ACE2 SI (SARS-CoV-2 [1]; [15]): > 8.08
CC50 at 24 h [2, 16]: > 16.8 µM
HeLa-ACE2 uninfected cytotoxicity Sinf Average (HeLa-ACE2 cells [7]): -100%
Emax (SARS-CoV-2 [3]; [17]): 100%
EC50 (SARS-CoV-2 [3]; [18]): > 9.05 µM
Calu-3 SI (SARS-CoV-2 [3]; [19]): 1.06
TOA:HeLa-ACE2 EC50 Ratio (SARS-CoV-2 [8]): 2.929
Emax (SARS-CoV-2 [8]): 99%
EC50 (SARS-CoV-2 [8]): 6.1 µM
EC50 (HeLa-ACE2 cells [9]): > 9.59 µM
Emax (HeLa-ACE2 cells [4]): 100%
EC50 (HeLa-ACE2 cells [4]; [20]): > 9.59 µM
EC50 (Calu-3 cells [5]; [21]): > 9.98 µM
CC50 at 72 h [10]: 12.5 µM
HepG2 72-hour cytotoxicity Sinf Average (HepG2): -100%
CC50 at 72 h [11]: 18.6 µM
HEK293T 72-hour cytotoxicty Sinf Average (HEK293T): -100%
CC50 at 48 h [12]: 9.6 µM
Calu-3 uninfected cytotoxicity Sinf Average (Calu-3 cells [13]): -100%

CCCCCCOC(=O)NC(=N)c1ccc(NCc2nc3cc(C(=O)N(CCC(=O)OCC)c4ccccn4)ccc3n2C)cc1 [Dabigatran etexilate mesilate]
HeLa-ACE2 SI (SARS-CoV-2 [1]): > 6.50
Emax (SARS-CoV-2 [1]): 100%
EC50 (SARS-CoV-2 [1]; [14]): 4.08 µM
CC50 at 24 h [2, 16]: > 26.5 µM
HeLa-ACE2 uninfected cytotoxicity Sinf Average (HeLa-ACE2 cells [7]): -97%
EC50 (SARS-CoV-2 [3]; [18]): > 9.98 µM
Emax (SARS-CoV-2 [8]): 100%
EC50 (SARS-CoV-2 [8]): > 9.51 µM
TOA:HeLa-ACE2 EC50 Ratio (SARS-CoV-2 [8]; TOA EC50 / HeLa-ACE2 SARS-CoV-2 EC50): 2.329
EC50 (HeLa-ACE2 cells [9]): > 9.59 µM
EC50 (HeLa-ACE2 cells [4]; [20]): > 9.59 µM
Emax (Calu-3 cells [5]): 100%
EC50 (Calu-3 cells [5]; [21]): > 9.98 µM
CC50 at 72 h [10]: 13.1 µM
HepG2 72-hour cytotoxicity Sinf Average (HepG2): -96%
CC50 at 72 h [11]: 8.53 µM
HEK293T 72-hour cytotoxicty Sinf Average (HEK293T): -101%
CC50 at 48 h [12]: > 29.9 µM
Calu-3 uninfected cytotoxicity Sinf Average (Calu-3 cells [13]): -100%

CC(CN(C)C)CN1c2ccccc2CCc2ccccc21 (centres unmarked) [Trimipramine maleate]
Emax (SARS-CoV-2 [1]): 99%
EC50 (SARS-CoV-2 [1]; [14]): 2.11 µM
HeLa-ACE2 SI (SARS-CoV-2 [1]; [15]): 10.11
CC50 at 24 h [2, 16]: 21.3 µM
HeLa-ACE2 uninfected cytotoxicity Sinf Average (HeLa-ACE2 cells [7]): -100%
Emax (SARS-CoV-2 [3]; [17]): 100%
EC50 (SARS-CoV-2 [3]; [18]): > 9.98 µM
Calu-3 SI (SARS-CoV-2 [3]; [19]): 2.90
TOA:HeLa-ACE2 EC50 Ratio (SARS-CoV-2 [8]): 2.576
Emax (SARS-CoV-2 [8]): 100%
EC50 (SARS-CoV-2 [8]): 5.42 µM
EC50 (HeLa-ACE2 cells [9]): > 9.59 µM
EC50 (HeLa-ACE2 cells [4]; [20]): > 9.59 µM
EC50 (Calu-3 cells [5]; [21]): > 9.98 µM
CC50 at 72 h [10]: 18.8 µM
HepG2 72-hour cytotoxicity Sinf Average (HepG2): -100%
CC50 at 72 h [11]: 12.8 µM
HEK293T 72-hour cytotoxicty Sinf Average (HEK293T): -102%
CC50 at 48 h [12]: > 29 µM
Calu-3 uninfected cytotoxicity Sinf Average (Calu-3 cells [13]): -100%

COc1ccc2cc1Oc1ccc(cc1)C[C@H]1c3cc(c(OC)cc3CCN1C)Oc1c(OC)c(OC)cc3c1[C@H](C2)N(C)CC3 [Hanfangchin A]
HeLa-ACE2 SI (SARS-CoV-2 [1]): > 16.08
Emax (SARS-CoV-2 [1]): 100%
EC50 (SARS-CoV-2 [1]; Severe acute respiratory syndrome coronavirus 2, HeLa-ACE2, read-out: HeLa-ACE2 CoV-2 EC50 GeoMean, detail block): 1.18 µM
CC50 at 24 h [2, 16]: > 18.9 µM
HeLa-ACE2 uninfected cytotoxicity Sinf Average (HeLa-ACE2 cells [7]): -99%
Calu-3 SI (SARS-CoV-2 [3]): 1.53
Emax (SARS-CoV-2 [3]): 87%
EC50 (SARS-CoV-2 [3]; [18]): > 9.98 µM
TOA:HeLa-ACE2 EC50 Ratio (SARS-CoV-2 [8]): 7.993
Emax (SARS-CoV-2 [8]): 100%
EC50 (SARS-CoV-2 [8]): > 9.41 µM
EC50 (HeLa-ACE2 cells [9]): > 9.59 µM
Emax (HeLa-ACE2 cells [4]): 100%
EC50 (HeLa-ACE2 cells [4]; [20]): > 9.21 µM
EC50 (Calu-3 cells [5]; [21]): > 9.98 µM
CC50 at 72 h [10]: 2.28 µM
HepG2 72-hour cytotoxicity Sinf Average (HepG2): -105%
CC50 at 72 h [11]: 3.6 µM
HEK293T 72-hour cytotoxicty Sinf Average (HEK293T): -101%
CC50 at 48 h [12]: 15.2 µM
Calu-3 uninfected cytotoxicity Sinf Average (Calu-3 cells [13]): -100%

COC(=O)[C@H]1[C@H]2C[C@@H]3c4[nH]c5cc(OC)ccc5c4CCN3C[C@H]2C[C@@H](OC(=O)c2cc(OC)c(OC)c(OC)c2)[C@@H]1OC [Reserpine]
Emax (SARS-CoV-2 [1]): 100%
EC50 (SARS-CoV-2 [1]; [14]): > 5.51 µM
HeLa-ACE2 SI (SARS-CoV-2 [1]; [15]): > 6.60
CC50 at 24 h [2, 16]: > 36.4 µM
HeLa-ACE2 uninfected cytotoxicity Sinf Average (HeLa-ACE2 cells [7]): -100%
Emax (SARS-CoV-2 [3]; [17]): 100%
EC50 (SARS-CoV-2 [3]; [18]): > 9.98 µM
Calu-3 SI (SARS-CoV-2 [3]; [19]): 2.85
TOA:HeLa-ACE2 EC50 Ratio (SARS-CoV-2 [8]): 0.542
Emax (SARS-CoV-2 [8]): 100%
EC50 (SARS-CoV-2 [8]): 2.99 µM
EC50 (HeLa-ACE2 cells [9]): > 9.61 µM
EC50 (HeLa-ACE2 cells [4]; [20]): > 9.6 µM
Emax (Calu-3 cells [5]): 100%
EC50 (Calu-3 cells [5]; [21]): > 9.98 µM
CC50 at 72 h [10]: 33 µM
HepG2 72-hour cytotoxicity Sinf Average (HepG2): -100%
CC50 at 72 h [11]: 11.7 µM
HEK293T 72-hour cytotoxicty Sinf Average (HEK293T): -100%
CC50 at 48 h [12]: > 28.5 µM
Calu-3 uninfected cytotoxicity Sinf Average (Calu-3 cells [13]): -100%

CCc1ccc2c(c1)N(CC(C)CN(C)C)c1ccccc1S2 (centres unmarked) [Ethylisobutrazine hydrochloride]
Emax (SARS-CoV-2 [1]): 100%
EC50 (SARS-CoV-2 [1]; [14]): 2 µM
HeLa-ACE2 SI (SARS-CoV-2 [1]; [15]): 10.48
CC50 at 24 h [2, 16]: 20.9 µM
HeLa-ACE2 uninfected cytotoxicity Sinf Average (HeLa-ACE2 cells [7]): -100%
Emax (SARS-CoV-2 [3]; [17]): 100%
EC50 (SARS-CoV-2 [3]; [18]): > 9.98 µM
Calu-3 SI (SARS-CoV-2 [3]; [19]): 1.57
TOA:HeLa-ACE2 EC50 Ratio (SARS-CoV-2 [8]): 1.889
Emax (SARS-CoV-2 [8]): 100%
EC50 (SARS-CoV-2 [8]): 3.77 µM
EC50 (HeLa-ACE2 cells [9]): > 9.59 µM
Emax (HeLa-ACE2 cells [4]): 100%
EC50 (HeLa-ACE2 cells [4]; [20]): > 9.59 µM
EC50 (Calu-3 cells [5]; [21]): > 9.98 µM
CC50 at 72 h [10]: 14.1 µM
HepG2 72-hour cytotoxicity Sinf Average (HepG2): -100%
CC50 at 72 h [11]: 10.3 µM
HEK293T 72-hour cytotoxicty Sinf Average (HEK293T): -104%
CC50 at 48 h [12]: 15.7 µM
Calu-3 uninfected cytotoxicity Sinf Average (Calu-3 cells [13]): -100%
